Columns and labels:
NCI-H82 = experiment: In vitro anti-tumor activity of molecular glue compounds, CellTiter-Lumi cell viability assay; type: cell-based; details: Homo sapiens; NCI-H82 cells, 96 h incubation; read-out: Cell inhibitory activity (IC50 values) NCI-H82
Experimental: (§1) Different tumor cells were all commercially available and used for evaluating the anti-tumor inhibitory activity of the compounds of the present disclosure. Various tumor cells were cultured until the cell confluency reached 80%-90%, with cell viability above 90% as determined by trypan blue exclusion. Then, the cells were plated. Specifically, after cell density optimization, 100 µL of each of the cell suspensions of HL-60 and SK-BR-3 cells (cell density: 3000 cells/well), Romas cells (cell density: 6000 cells/well), NCI-H929 cells (cell density: 4000 cells/well), and NCI-H82 cells (cell density: 5000 cells/well) was plated in a BeyoGold™ ultra-low attachment black clear-bottom 96-well plate (Cat. No.: FULA965-24pcs), and the plate was incubated overnight. The next day, after the adherent cells were adhered to the wall and suspension cells requiring aggregation were aggregated, 50 µL of culture medium was aspirated from each well of the 96-well plate. Then, the compounds diluted with the corresponding culture media were added. Specifically, the compounds were serially diluted at a 5-fold gradient starting from the highest concentration of 1 µM, with a final DMSO concentration of 1%o, and the test compounds were then added to the cell culture plate. The plate was incubated in an incubator at 37 °C with 5% carbon dioxide for 96 h. Before measurement, the CellTiter-Lumi™ luminescent cell viability assay reagent was equilibrated to room temperature in the dark. Then, 50 µL of the CellTiter-Lumi™ (Cat. No.: C0065XL) cell viability assay reagent was added to each well of the 96-well plate. The plate was shaken in the dark on a shaker at 300 rpm for 10 min to ensure complete cell lysis. After the reaction was completed, the luminescence was measured on a multi-mode microplate reader. The cell inhibition rate was determined according to the luminescence. Then, a cell viability curve was generated by Graphpad Prism 8.0, and the IC50 values were calculated. The compounds of the present disclosure were tested for activity by the method described above. Table 1. Cell inhibitory activity (IC50 values)

HL-60 = experiment: as above; type: cell-based; details: Homo sapiens; HL-60 cells, 96 h incubation; read-out: Cell inhibitory activity (IC50 values) HL-60
Experimental: as §1

Romas = experiment: as above; type: cell-based; details: Romas cells, 96 h incubation; read-out: Cell inhibitory activity (IC50 values) Romas
Experimental: as §1

NCI-H929 = experiment: as above; type: cell-based; details: Homo sapiens; NCI-H929 cells, 96 h incubation; read-out: Cell inhibitory activity (IC50 values) NCI-H929
Experimental: as §1

SK-BR-3 = experiment: as above; type: cell-based; details: Homo sapiens; SK-BR-3 cells, 96 h incubation; read-out: Cell inhibitory activity (IC50 values) SK-BR-3
Experimental: as §1

in vitro [1] = details: rat, microsomes
[2] = Metabolic stability in liver microsomes; details: Mouse liver microsomes, after 60 min of incubation
Experimental: (§2) The final concentration of the substrate in the incubation system was 1 µM, and the incubation time was 60 min. Sampling was performed at 0 min, 5 min, 15 min, 30 min, and 60 min. The reaction was stopped with glacial acetonitrile containing an internal standard (testosterone-d3 at a concentration of 10 ng/mL). Verapamil was used as a positive control. […] The natural logarithm of the remaining percentage was subjected to linear fitting with time to determine the elimination rate constant (k).

[3] = Metabolic stability in liver microsomes; details: Human liver microsomes, after 60 min of incubation
Experimental: as §2

[4] = Metabolic stability in liver microsomes; details: Rat liver microsomes, after 60 min of incubation
in vitro [5] = details: human, microsomes
Experimental: as §2

in vitro [6] = details: monkey, microsomes
Experimental: as §2

[7] = Metabolic stability in liver microsomes; details: Monkey liver microsomes, after 60 min of incubation
Experimental: as §2

[8] = Metabolic stability in liver microsomes; details: Dog liver microsomes, after 60 min of incubation
Experimental: as §2

IC50 (NCI-H82) [nM]	IC50 (HL-60) [nM]	IC50 (Romas) [nM]	IC50 (NCI-H929) [nM]	IC50 (SK-BR-3) [nM]	SMILES	other results
10 to 50	10 to 50	10 to 50	10 to 50	10 to 50	O=C1CCC(N2Cc3cc(CNC(=O)Nc4ccc(COC5CCCNC5)c(Cl)c4)ccc3C2=O)C(=O)N1 (stereo not shown) [Compound B7]	
10 to 50	10 to 50	10 to 50	10 to 50	10 to 50	O=C1CCC(N2Cc3cc(CNC(=O)Nc4ccc(COCC5CCCNC5)c(Cl)c4)ccc3C2=O)C(=O)N1 (stereo not shown) [Compound B8]	
10 to 50	< 10	10 to 50	< 10	10 to 50	O=C1CCC(N2Cc3cc(CNC(=O)Nc4ccc(COCCC5CCCNC5)c(Cl)c4)ccc3C2=O)C(=O)N1 (stereo not shown) [Compound B9]	
> 100	10 to 50	10 to 50	< 10	10 to 50	O=C1CCC(N2Cc3cc(CNC(=O)Nc4ccc(COCCCC5CCCNC5)c(Cl)c4)ccc3C2=O)C(=O)N1 (stereo not shown) [Compound B10]	
10 to 50	< 10	10 to 50	< 10	10 to 50	O=C1CCC(N2Cc3cc(CNC(=O)Nc4ccc(CCOC5CCCNC5)c(Cl)c4)ccc3C2=O)C(=O)N1 (stereo not shown) [Compound B13]	
10 to 50	< 10	< 10	< 10	10 to 50	O=C1CCC(N2Cc3cc(CNC(=O)Nc4ccc(CCOCC5CCCNC5)c(Cl)c4)ccc3C2=O)C(=O)N1 (stereo not shown) [Compound B14]	
> 100	< 10	10 to 50	10 to 50	10 to 50	O=C1CCC(N2Cc3cc(CNC(=O)Nc4ccc(CCOCCC5CCCNC5)c(Cl)c4)ccc3C2=O)C(=O)N1 (stereo not shown) [Compound B15]	
10 to 50	< 10	< 10	< 10	< 10	O=C1CCC(N2Cc3cc(CNC(=O)Nc4ccc(CCCOCC5CCCNC5)c(Cl)c4)ccc3C2=O)C(=O)N1 (stereo not shown) [Compound B20]	
> 100	< 10	10 to 50	10 to 50	10 to 50	O=C1CCC(N2Cc3cc(CNC(=O)Nc4ccc(CCCOCCC5CCCNC5)c(Cl)c4)ccc3C2=O)C(=O)N1 (stereo not shown) [Compound B21]	
10 to 50	< 10	< 10	< 10	< 10	O=C1CCC(N2Cc3cc(CNC(=O)Nc4ccc(CCCCOC5CCCNC5)c(Cl)c4)ccc3C2=O)C(=O)N1 (stereo not shown) [Compound B25]	
10 to 50	< 10	< 10	< 10	< 10	CNC1CCCC(OCCc2ccc(NC(=O)NCc3ccc4c(c3)CN(C3CCC(=O)NC3=O)C4=O)cc2Cl)C1 (stereo not shown) [Compound B43]	
10 to 50	< 10	< 10	< 10	< 10	CNC1COCC(OCCc2ccc(NC(=O)NCc3ccc4c(c3)CN(C3CCC(=O)NC3=O)C4=O)cc2Cl)C1 (stereo not shown) [Compound B44]	
10 to 50	< 10	< 10	< 10	< 10	CNCC1(COCCc2ccc(NC(=O)NCc3ccc4c(c3)CN(C3CCC(=O)NC3=O)C4=O)cc2Cl)CCCCC1 (stereo not shown) [Compound B45]	
> 100	< 10	50 to 100	10 to 50	50 to 100	O=C1CCC(N2Cc3cc(CNC(=O)Nc4ccc(CCOCCNC5CCCCC5)c(Cl)c4)ccc3C2=O)C(=O)N1 (stereo not shown) [Compound B46]	
> 100	10 to 50	> 100	10 to 50	> 100	O=C1CCC(N2Cc3cc(CNC(=O)Nc4ccc(CCOCCNC5CC5)c(Cl)c4)ccc3C2=O)C(=O)N1 (stereo not shown) [Compound B47]	
> 100	< 10	50 to 100	10 to 50	50 to 100	O=C1CCC(N2Cc3cc(CNC(=O)Nc4ccc(CCOCCNC5CCOCC5)c(Cl)c4)ccc3C2=O)C(=O)N1 (stereo not shown) [Compound B48]	
> 100	10 to 50	50 to 100	10 to 50	50 to 100	CNCCOCCC1(c2ccc(NC(=O)NCc3ccc4c(c3)CN(C3CCC(=O)NC3=O)C4=O)cc2Cl)CCCCC1 (stereo not shown) [Compound B51]	
10 to 50	< 10	< 10	< 10	< 10	O=C1CCC(N2Cc3cc(CNC(=O)Nc4ccc(CCOCC5CNCCO5)c(Cl)c4)ccc3C2=O)C(=O)N1 (stereo not shown) [Compound B53]	
10 to 50	< 10	10 to 50	< 10	10 to 50	CNCC1CCCC(OCCc2ccc(NC(=O)NCc3ccc4c(c3)CN(C3CCC(=O)NC3=O)C4=O)cc2Cl)C1 (stereo not shown) [Compound B54]	
10 to 50	< 10	10 to 50	< 10	< 10	O=C1CCC(N2Cc3cc(CNC(=O)Nc4ccc(CCCOC5CNC5)c(Cl)c4)ccc3C2=O)C(=O)N1 (stereo not shown) [Compound B63]	CLint scaled at 1 µM (in vitro [1]): 1.39 mL/min/kg; CLint scaled at 1 h, 1 µM (in vitro [1]): 1.35 mL/min/kg; half-life at 1 µM (in vitro [1]): 29.8 h; Parent drug remaining % [2]: 102%; Parent drug remaining % [3]: 98.8%; Parent drug remaining % [4]: 94.9%; CLint scaled at 1 µM (in vitro [5]): 0.19 mL/min/kg; CLint scaled at 1 h, 1 µM (in vitro [5]): 0.189 mL/min/kg; half-life at 1 µM (in vitro [5]): 152 h; CLint scaled at 1 µM (in vitro [6]): 0.257 mL/min/kg; CLint scaled at 1 h, 1 µM (in vitro [6]): 0.255 mL/min/kg; half-life at 1 µM (in vitro [6]): 132 h; Parent drug remaining % [7]: 101%; Parent drug remaining % [8]: 103%
10 to 50	< 10	< 10	< 10	< 10	O=C1CCC(N2Cc3cc(CNC(=O)Nc4ccc(CCCOC5CCNC5)c(Cl)c4)ccc3C2=O)C(=O)N1 (stereo not shown) [Compound B64]	
10 to 50	< 10	< 10	< 10	< 10	O=C1CCC(N2Cc3cc(CNC(=O)Nc4ccc(CCCOCC5CCCN5)c(Cl)c4)ccc3C2=O)C(=O)N1 (stereo not shown) [Compound B65]	
10 to 50	< 10	< 10	< 10	< 10	CC1(OCCCc2ccc(NC(=O)NCc3ccc4c(c3)CN(C3CCC(=O)NC3=O)C4=O)cc2Cl)CCNCC1 (stereo not shown) [Compound B66]	
10 to 50	< 10	< 10	< 10	< 10	CC1(OCCCc2ccc(NC(=O)NCc3ccc4c(c3)CN(C3CCC(=O)NC3=O)C4=O)cc2Cl)CCCNC1 (stereo not shown) [Compound B67]	
10 to 50	< 10	< 10	< 10	< 10	O=C1CCC(N2Cc3cc(CNC(=O)Nc4ccc(CCCOC5CC6(CNC6)C5)c(Cl)c4)ccc3C2=O)C(=O)N1 (stereo not shown) [Compound B68]	
10 to 50	< 10	10 to 50	< 10	10 to 50	O=C1CCC(N2Cc3cc(CNC(=O)Nc4ccc(CCCOC5CNCC6CCCCC65)c(Cl)c4)ccc3C2=O)C(=O)N1 (stereo not shown) [Compound B70]	
10 to 50	< 10	< 10	< 10	< 10	O=C1CCC(N2Cc3cc(CNC(=O)Nc4ccc(CCCOC5CCNC6CC65)c(Cl)c4)ccc3C2=O)C(=O)N1 (stereo not shown) [Compound B71]	
10 to 50	< 10	10 to 50	< 10	10 to 50	O=C1CCC(N2Cc3cc(CNC(=O)Nc4ccc(CCCOC5CCNCC56CC6)c(Cl)c4)ccc3C2=O)C(=O)N1 (stereo not shown) [Compound B72]	
